# Measurements from US6809208B2, “3-Arylbenzofuranones with electron-withdrawing substituents as stabilizers” (Ciba Specialty Chemicals Corporation, priority 2000, dated 2004).
# Assay: Stabilization of polyesters (rancimate, conductivity of separation products)
# Conditions: 0.20% stabilizer; 1 hour under pure oxygen at 290° C.; without stabilizer 47
# Method: 2.5 kg of a polyester which has been dried for 12 hours at 120° C. in a vacuum drying oven (Polyclear® T86, of Hoechst) is charged with the stabilizers listed in Table 23 and is mixed for 2 hours in a Henschel mixer. This mixture is then extruded in a Schwabenthan extruder at a maximum of 275° C. The polymer string is then granulated. The granulate so obtained is dried for another 12 hours in a vacuum drying oven. In a double determination, 500 mg of the granulate is heated over 10 minutes to 290° C. and is stored for 1 hour under pure oxygen in a rancimate at 290° C. The resulting gaseous separation products are continuously led into an aqueous collecting solution and the conductivity (μS) of this solution is continuously measured. Low conductivity values signify that few separation products are formed, high conductivity values signify that very many separation products are formed. […]
structure (smiles),measurement,value
CC(C)(C)c1cc2c(c(C(C)(C)C)c1)OC(=O)C2c1cccc(C#N)c1 (stereo not shown) [Compound (107)],Conductivity,34 μS
